From paper PMC2192625 (The Journal of Experimental Medicine, 1996)
pIC50: −log10 of the molar value. Where two headings read alike, the source gives them in different places. Residues, ends and D or L forms follow the SMILES beside them.

Tests used:
[1] = tested on: experimental allergic encephalomyelitis in HLA-DRA-IEα/HLA-DRB1*0401-IEβ Tg mice; format: in vivo, mouse
[2] = biological target: HLA-DRA-IEα/HLA-DRB1*0401-IEβ chimeric molecules purified from transfected M12.C3 cells (Homo sapiens, UniProt P01903+P01911, A100K/A169T/F76Y/I96L/K127E/L162R/M171V/N62H/P40V/Q125Y/R42H/S133A/S149N/S66Y/V115G/V209L/W38E); assay: biochemical; format: binding, human/mouse chimeric
[3] = biological target: HLA-DRB1*0401 molecules purified from Priess cells (Homo sapiens, UniProt P01903+P01911, A100K/A169T/F76Y/I96L/K127E/L162R/M171V/N62H/P40V/Q125Y/R42H/S133A/S149N/S66Y/V115G/V209L/W38E); assay: biochemical; format: binding

Row | SMILES | Severity: number of mice with clinical score 0 (no disease) ([1]; Non-Tg mice, n = 5, Table 2) | EAE developed (in words) ([1]; Tg mice) | Severity: number of mice with clinical score 0 (no disease) ([1]; Tg mice, n = 5, Table 2) | Severity: number of mice with clinical score 1 (tail atony) ([1]; Tg mice, n = 5, Table 2) | Severity: number of mice with clinical score 3 (hind-limb paralysis) ([1]; Tg mice, n = 5, Table 2) | pIC50 [2] | pIC50 [3]
1 | CC[C@H](C)[C@H](NC(=O)[C@H](CC(N)=O)NC(=O)[C@H](CCCCN)NC(=O)[C@H](Cc1ccccc1)NC(=O)[C@H](Cc1ccccc1)NC(=O)[C@H](Cc1c[nH]cn1)NC(=O)[C@@H](NC(=O)[C@@H](N)C(C)C)C(C)C)C(=O)N[C@H](C(=O)N[C@H](C(=O)N1CCC[C@H]1C(=O)N[C@@H](CCCNC(=N)N)C(=O)N[C@H](C(=O)N1CCC[C@H]1C(=O)N1CCC[C@H]1C(=O)N1CCC[C@H]1C(=O)N[C@@H](CO)C(=O)N[C@@H](CCC(N)=O)C(=O)NCC(=O)N[C@@H](CCCCN)C(=O)O)[C@@H](C)O)[C@@H](C)O)C(C)C [MBP87-106] (H-VVHFFKNIVTPRTPPPSQGK-OH; N-terminus and C-terminus assumed) | 5 | only a mild EAE | 2 | 2 | 1 | – | –
2 | CC[C@H](C)[C@H](NC(=O)[C@H](CO)NC(=O)[C@H](CCC(N)=O)NC(=O)[C@H](CS)NC(=O)[C@@H](NC(=O)[C@@H](NC(=O)[C@H](Cc1c[nH]c2ccccc12)NC(=O)[C@@H](NC(=O)[C@H](CC(N)=O)NC(=O)[C@H](Cc1ccccc1)NC(=O)[C@H](Cc1ccc(O)cc1)NC(=O)[C@@H](NC(=O)[C@@H](N)Cc1ccc(O)cc1)[C@@H](C)CC)[C@@H](C)O)[C@@H](C)O)[C@@H](C)O)C(=O)N[C@@H](C)C(=O)N[C@@H](Cc1ccccc1)C(=O)N1CCC[C@H]1C(=O)N[C@@H](CO)C(=O)N[C@@H](CCCCN)C(=O)O [PLP175-192] (H-YIYFNTWTTCQSIAFPSK-OH) | – | – | – | – | – | 6.77 | 6.73
3 | CSCC[C@H](NC(=O)[C@H](C)NC(=O)[C@H](CCCNC(=N)N)NC(=O)[C@@H](N)Cc1ccc(O)cc1)C(=O)N[C@@H](C)C(=O)N[C@@H](C)C(=O)N[C@@H](CC(C)C)C(=O)O [Peptide A6-m1-7] (H-YRAMAAL-OH) | – | – | – | – | – | 6.28 | 6.39
4 | CSCC[C@H](NC(=O)[C@H](C)NC(=O)[C@H](CCCNC(=N)N)NC(=O)[C@@H](N)Cc1ccc(O)cc1)C(=O)N[C@@H](C)C(=O)N[C@@H](CO)C(=O)N[C@@H](CC(C)C)C(=O)O [Peptide S6-m1-7] (H-YRAMASL-OH) | – | – | – | – | – | 7.28 | 7.37
5 | CSCC[C@H](NC(=O)[C@H](C)NC(=O)[C@H](CCCNC(=N)N)NC(=O)[C@@H](N)Cc1ccc(O)cc1)C(=O)N[C@@H](C)C(=O)N[C@H](C(=O)N[C@@H](CC(C)C)C(=O)O)[C@@H](C)O [m 1-7] (H-YRAMATL-OH) | – | – | – | – | – | 6.89 | 6.92
